Experiments:
Assay type in all cases: physicochemical
[1] = Microsphere formation, size and appearance by light microscopy; conditions: for Microsphere Size (microns): 5 mg/ml protein
[2] = Microsphere quality score by light microscopy (scoring system of Table 13); conditions: for microsphere formation: control
Experimental: For each of the compounds listed in A-D above, and for DAS181, cocktail solutions containing 2 mg/ml of compound dissolved in an aqueous solvent and various counterions, antisolvents and pH, as listed below, were prepared in a 96-well microtiter plate (0.1 ml cocktail/well) at room temperature. Control solutions contained either solvent or antisolvent alone, with or without the counterion. Cocktails were cooled by placing in a freezer. The chilled plates were transferred onto pre-chilled (−45° C.) shelves of a Millrock Lab Series Lyophilizer, and the vacuum was applied. The frozen cocktail solutions were allowed to lyophilize for 16 hours.
The lyophilized powders from the bottoms of the wells were transferred onto glass slides and analyzed by light microscopy for appearance. The quality of the product microspheres was scored based on the uniformity of the microspheres, the absence of undesirable non-microsphere particles (glass-like crystalline forms), and the absence of aggregates.
Arginine was used as counterion and isopropanol was used as antisolvent. Concentrations of each of the cocktail components—the compound, the counterion and the antisolvent—were varied as shown below in Table 15, and the effect on microsphere quality assessed.
Experiments were performed to evaluate the effect of antisolvent and counterion concentration variation on the formation of microspheres. The peptides leuprolide and somatostatin, and the antibiotics vancomycin and tobramycin, were tested under a variety of conditions for forming microspheres. Samples were analyzed in 96-well plates as described in the previous Examples.
The experiments were performed using PGI2 and an analog of PGI2, Ciprostene, at a concentration of 2 mg/ml. Cocktail solutions were mixed at room temperature, then cooled by placing in a freezer. The chilled plates were transferred onto pre-chilled (−45° C.) shelves of a Millrock Lab Series Lyophilizer, and the vacuum was applied. The frozen cocktail solutions were allowed to lyophilize for 16 hours.
Because the resulting prostaglandin microspheres are hygroscopic, upon microsphere initiation, the humidity was maintained at low levels during the experiments, using a nitrogen gas tank attached to the backfill system on the lyophilizer. Each of the reaction tubes was flushed with N2. In addition, the backfill valve on the lyophilizer was left open to continually flush a low humidity atmosphere over the samples. The microscope used to visualize the resulting microspheres was contained within a plastic bag that was continually purged with dry N2. Sample tubes were placed under the bag to equilibrate for approximately 30 seconds, before opening and spreading onto the glass slide.
The compound/counterion/antisolvent conditions were as follows:
Experiments were performed with 200 μl of each of the above cocktail solutions in a 2 ml lyophilization bottle (first flash freeze condition), and 25 μl of each of the above cocktail solutions in a PCR tube (second flash freeze condition). The samples in the lyophilization bottles took approximately 15 seconds to freeze. The samples in the PCR tubes took approximately 3 seconds or less to freeze.
The cocktails in the 96-well plates were cooled by placing in a freezer. The chilled plates were transferred onto pre-chilled (−45° C.) shelves of a Millrock Lab Series Lyophilizer, and a vacuum was applied. The frozen cocktail solutions were allowed to lyophilize for 16 hours.
The lyophilized powders from the bottoms of the wells were transferred onto glass slides and analyzed by light microscopy for appearance.

[3] = Cascade Impaction of vancomycin microspheres, New Generation Impactor
Experimental: Vancomycin was dissolved in aqueous buffer at a final concentration of 10 mg/ml. The cocktail contained 5 mM sodium citrate pH 5.0 as counterion and 15% v/v n-propanol as anti-solvent. A 2 ml aliquot of cocktail was frozen in a 10-ml lyophilization vial placed in a −80° C. freezer for 1 hour. The frozen vial was transferred onto a −45° C. lyophilizer shelf and freeze dried for 36 hours.
The microspheres prepared as described in Example 5 were tested by Cascade Impaction using a New Generation Impactor. The deposition of pharmaceuticals in the respiratory tract can be predicted by the aerodynamic behavior of particles (microspheres) on the stages/collection plates of the cascade impactor.
The microspheres (10 mg) were loaded into HPMC (hydroxypropyl methylcellulose) capsule. The capsule was placed into a CycloHaler (PharmaChemie) dry powder inhaler and subjected to cascade impaction. The collection plates of the impactor representing various areas/stages of deposition post-inhalation (trachea, primary and secondary bronchi, terminal bronchi, alveoli, etc.) were coated with silicon spray to prevent bouncing of the microspheres. The microspheres from the stages and collection plates were recovered into a phosphate buffered saline containing 0.1% Tween, and the amount of deposited vancomycin recovered from each stage and collection plate was quantified by measuring absorbance at 280 nm.

Molecule: Lysozyme: purchased from Sigma
- Microsphere Size (microns) ([1]; 5 mM citrate, pH 8.0, 5% isopropanol): 4-5 microns

Molecule: CCNC(=O)[C@@H]1CCCN1C(=O)[C@H](CCCNC(=N)N)NC(=O)[C@H](CC(C)C)NC(=O)[C@@H](CC(C)C)NC(=O)[C@H](Cc1ccc(O)cc1)NC(=O)[C@H](CO)NC(=O)[C@H](Cc1c[nH]c2ccccc12)NC(=O)[C@H](Cc1c[nH]cn1)NC(=O)[C@@H]1CCC(=O)N1 [leuprolide]
- Microsphere Quality ([2]; 2 mM Na-citrate, 15% isopropanol, pH 4.0): 5/6

Molecule: Green fluorescent protein
- Microsphere Size (microns) ([1]; 5 mM pivalic acid, pH 7.0, 10% 1-propanol): 0.5-1.5 microns

Molecule: Hemoglobin
- Microsphere Size (microns) ([1]; 5 mM glycine, pH 5.0, 10% isopropanol): 0.4-0.7 microns

Molecule: CCCCC[C@H](O)/C=C/[C@@H]1[C@H]2C/C(=C/CCCC(=O)O)O[C@H]2C[C@H]1O [Prostaglandin I2]
- Microsphere Quality ([2]; compound 2 mg/ml, 2 mM Arginine, pH 9, 20% n-propanol, 5% t-butanol): 7/8
- Microsphere Quality ([2]; compound 2 mg/ml, 2 mM Arginine, pH 9, 20% n-propanol, 55% t-butanol): 5/6
- Microsphere Quality ([2]; compound 2 mg/ml, 2 mM TEA, pH 11, 20% n-propanol, 5% t-butanol): 7/8
- Microsphere Quality ([2]; compound 2 mg/ml, 2 mM TEA, pH 11, 30% n-propanol, 0% t-butanol): 2/3

Molecule: CC1(C)S[C@@H]2[C@H](NC(=O)[C@H](N)c3ccccc3)C(=O)N2[C@H]1C(=O)O [Ampicillin]
- Microsphere Quality ([2]; 2 mg/ml compound, 2 mM Na-Citrate, 5% n-propanol, pH 5.0): 3/4
- Microsphere Quality ([2]; 2 mg/ml compound, 2 mM Na-Glutamate, 5% n-propanol, pH 4.0): 3-5

Molecule: NC[C@H]1O[C@H](O[C@H]2[C@H](O)[C@@H](O[C@H]3O[C@H](CO)[C@@H](O)[C@H](N)[C@H]3O)[C@H](N)C[C@@H]2N)[C@H](N)C[C@@H]1O [Tobramycin]
- Microsphere Quality ([2]; compound 2 mg/ml, Itaconic acid-Na, pH 4.0 2 mM, Isopropanol 0%): 4/5
- Microsphere Quality ([2]; compound 2 mg/ml, Itaconic acid-Na, pH 4.0 2 mM, Isopropanol 5%): 7/8
- Microsphere Quality ([2]; compound 2 mg/ml, Itaconic acid-Na, pH 4.0 2 mM, Isopropanol 30%): 8/9
- Microsphere Quality ([2]; compound 2 mg/ml, Itaconic acid-Na, pH 4.0 2 mM, Isopropanol 40%): 6/7
- Microsphere Quality ([2]; compound 2 mg/ml, Itaconic acid-Na, pH 4.0 2 mM, Isopropanol […]): 7/8
- Microsphere Quality ([2]; compound 2 mg/ml, Itaconic acid-Na, pH 4.0 5 mM, Isopropanol 5%): Crystals
- Microsphere Quality ([2]; compound 2 mg/ml, Itaconic acid-Na, pH 4.0 10 mM, Isopropanol 5%): Crystals
- Microsphere Quality ([2]; compound 2 mg/ml, Itaconic acid-Na, pH 4.0 15 mM, Isopropanol 5%): Crystals
- Microsphere Quality ([2]; compound 2 mg/ml, Itaconic acid-Na, pH 4.0 17 mM, Isopropanol 5%): Crystals
- Microsphere Quality ([2]; pH 4): Crystals

Molecule: C=C(CC(=O)O)C(=O)O [itaconic acid]
- microsphere formation ([2]; no added compound: 2 mM itaconic acid buffered to pH 7, 5% isopropanol): hygroscopic microspheres
- microsphere formation ([2]; no added compound: 2 mM itaconic acid buffered with sodium hydroxide at pH 4, 15% isopropanol): microspheres were formed

Molecule: CN[C@H](CC(C)C)C(=O)N[C@H]1C(=O)N[C@@H](CC(N)=O)C(=O)N[C@H]2C(=O)N[C@H]3C(=O)N[C@H](C(=O)N[C@H](C(=O)O)c4cc(O)cc(O)c4-c4cc3ccc4O)[C@H](O)c3ccc(c(Cl)c3)Oc3cc2cc(c3O[C@@H]2O[C@H](CO)[C@@H](O)[C@H](O)[C@H]2O[C@H]2C[C@](C)(N)[C@H](O)[C@H](C)O2)Oc2ccc(cc2Cl)[C@H]1O [Vancomycin]
- Microsphere Quality ([2]; compound 2 mg/ml, Na-citrate, pH 5.0 7.5 mM, Isopropanol 5%): 9/8
- Microsphere Quality ([2]; compound 2 mg/ml, Na-citrate, pH 5.0 […], Isopropanol 5%): 9/8
- microsphere rating ([2]; pH 5): 9/10
- Percent Deposition of Vancomycin ([3]; Capsule + device, size cut-off NA): 37.57%
- Percent Deposition of Vancomycin ([3]; Throat, size cut-off >10 microns, oral cavity): 10.48%
- Percent Deposition of Vancomycin ([3]; impactor component 1, size cut-off >8.06 microns, Oral cavity/pharynx): 3.33%
- Percent Deposition of Vancomycin ([3]; impactor component 2, size cut-off 4.46-8.06 microns, pharynx): 7.71%
- Percent Deposition of Vancomycin ([3]; impactor component 3, size cut-off 2.82-4.46 microns, trachea/bronchi): 15.47%
- Percent Deposition of Vancomycin ([3]; impactor component 4, size cut-off 1.66-2.82 microns, secondary bronchi): 16.69%
- Percent Deposition of Vancomycin ([3]; impactor component 5, size cut-off 0.94-1.66 microns, terminal bronchi/alveoli): 6.38%
- Percent Deposition of Vancomycin ([3]; impactor component 6, size cut-off 0.55-0.94 microns, alveoli): 1.59%
- Percent Deposition of Vancomycin ([3]; impactor component 7, size cut-off 0.34-0.55 microns, alveoli): 0.51%
- Percent Deposition of Vancomycin ([3]; impactor component 8, size cut-off <0.34 microns, alveoli): 0.27%
- geometric size of microspheres ([1]; 10 mg/ml vancomycin, 5 mM sodium citrate pH 5.0, 15% v/v n-propanol, light microscopy): 1.0-3.0 microns

B1: PIN 168 (PI8): hexahistidine-tagged human proteinase inhibitor 8 (SEQ ID NO:15) (protein, listed as Homo sapiens)
chain: MDDLCEANGTFAISLFKILGEEDNSRNVFFSPMSISSALAMVFMGAKGSTAAQMSQALCLYKDGDIHRGFQSLLSEVNRTGTQYLLRTANRLFGEKTCDFLPDFKEYCQKFYQAELEELSFAEDTEECRKHINDWVAEKTEGKISEVLDAGTVDPLTKLVLVNAIYFKGKWNEQFDRKYTRGMLFKTNEEKKTVQMMFKEAKFKMGYADEVHTQVLELPYVEEELSMVILLPDDNTDLAVVEKALTYEKFKAWTNSEKLTKSKVQVFLPRLKLEESYDLEPFLRRLGMIDAFDEAKADFSGMSTEKNVPLSKVAHKCFVEVNEEGTEAAAATAVVRNSRCSRMEPRFCADHPFLFFIRRHKTNCILFCGRFSSP
modifications: hexahistidine tag; protease inhibitor 8 (PI8) (Serpin B8)
- Microsphere Size (microns) ([1]; 5 mM citrate, pH 5.0, 7% isopropanol): 2-5 microns

B2: RNase A: purchased from Sigma (protein, UniProt P61823 27-150, looked up)
Ribonuclease pancreatic: KETAAAKFERQHMDSSTSAASSSNYCNQMMKSRNLTKDRCKPVNTFVHESLADVQAVCSQKNVACKNGQTNCYQSYSTMSITDCRETGSSKYPNCAYKTTQANKHIIVACEGNPYVPVHFDASV
- Microsphere Size (microns) ([1]; 5 mM citrate, pH 4.0, 5% isopropanol): 0.4-1 microns

B3: Ovalbumin: purchased from Sigma (protein, UniProt P01012 2-386, looked up)
Ovalbumin: GSIGAASMEFCFDVFKELKVHHANENIFYCPIAIMSALAMVYLGAKDSTRTQINKVVRFDKLPGFGDSIEAQCGTSVNVHSSLRDILNQITKPNDVYSFSLASRLYAEERYPILPEYLQCVKELYRGGLEPINFQTAADQARELINSWVESQTNGIIRNVLQPSSVDSQTAMVLVNAIVFKGLWEKAFKDEDTQAMPFRVTEQESKPVQMMYQIGLFRVASMASEKMKILELPFASGTMSMLVLLPDEVSGLEQLESIINFEKLTEWTSSNVMEERKIKVYLPRMKMEEKYNLTSVLMAMGITDVFSSSANLSGISSAESLKISQAVHAAHAEINEAGREVVGSAEAGVDAASVSEEFRADHPFLFCIKHIATNAVLFFGRCVSP
- Microsphere Size (microns) ([1]; 5 mM pivalic acid, pH 4.0, 10% isopropanol): 0.5-1 microns

B4: Trypsin: purchased from Worthington (protein, UniProt P00760 24-246, looked up)
Serine protease 1: IVGGYTCGANTVPYQVSLNSGYHFCGGSLINSQWVVSAAHCYKSGIQVRLGEDNINVVEGNEQFISASKSIVHPSYNSNTLNNDIMLIKLKSAASLNSRVASISLPTSCASAGTQCLISGWGNTKSSGTSYPDVLKCLKAPILSDSSCKSAYPGQITSNMFCAGYLEGGKDSCQGDSGGPVVCSGKLQGIVSWGSGCAQKNKPGVYTKVCNYVSWIKQTIASN
- Microsphere Size (microns) ([1]; 5 mM arginine, pH 8.0, 5% isopropanol): 0.5-1 microns

— patent US20190060239A1, “Technology for the Preparation of Microparticles” (Ansun Biopharma, Inc., priority 2007, published 2019)
